Columns and labels:
[1] = Incorporation of BCNU into GMO gel without disruption of the three-dimensional structure; format: physicochemical; settings: physiologic temperature
Excerpt: The drug, such as BCNU, releases from the semisolid through diffusion, conceivably in a biphasic manner. A first phase involves, for example, a lipophilic drug contained within the lipophilic membrane diffuses therefrom into the aqueous channel 15. The second phase involves diffusion of the drug from the aqueous channel 15 into the external environment. Being lipophilic, BCNU orients itself inside the GMO gel within its proposed lipid bi-layer structure. Thus, incorporating greater than approximately 7.5% BCNU by weight into GMO causes a loss of the integrity of the three-dimensional structure whereby the gel system no longer maintains the semisolid cubic phase, and reverts to the viscous lamellar phase liquid.
It is possible to incorporate approximately 7.5% BCNU by weight into GMO gel at physiologic temperature without disruption of the normal three-dimensional structure. In addition, an average glioma tumor measures approximately 3 centimeters in diameter and equates to approximately 14 cubic centimeters in volume. As a result, approximately 11.5 to 12.0 grams of GMO gel may be implanted into the resection pocket. This equates to a possible drug dosage of approximately 900 milligrams with maximal drug. As stated earlier, the clinically recommended dose of BCNU delivered by Gliadel® Wafers to date is approximately 65 milligrams.

[2] = Miscibility of GMS in H2O; format: physicochemical
Excerpt: It is recognized that alternative semisolids, modified formulations and methods of production exist such that the lipophilic nature of the semisolid can be altered, or in the alternative, the aqueous channels 15 contained within the semisolid can be altered. Thus, various therapeutic agents in varying concentrations may diffuse from the semisolid at differing rates, or be released therefrom over time via the aqueous channels 15 of the semisolid. Hydrophilic substances may be utilized to alter semisolid consistency or drug release by alteration of viscosity, fluidity, surface tension or the polarity of the aqueous component. […] However, because GMS is a surfactant, GMS is miscible in H2O up to approximately 20% weight/weight. For purposes of this disclosure, the term “surfactant” means surface active agent, thus being miscible in H2O in limited concentrations as well as polar substances. Upon heating and stirring, the 80% H2O/20% GMS combination produces a spreadable paste having a consistency resembling hand lotion.

| SMILES | BCNU incorporated into GMO gel without disruption of the normal three-dimensional structure [1] | miscibility in H2O [2] [% weight/weight] |
| --- | --- | --- |
| O=NN(CCCl)C(=O)NCCCl [BCNU, 1,3-bis[2-chloroethyl]-1-nitrosourea] | approximately 7.5 % by weight | – |
| CCCCCCCCCCCCCCCCCC(=O)OCC(O)CO (centres unmarked) [GMS, glyceryl monostearate] | – | ≤ 20 |

Source: US6488952B1, “Semisolid therapeutic delivery system and combination semisolid, multiparticulate, therapeutic delivery system” (priority 2001, dated 2002)
